Tested on: human aortic smooth muscle cells (HASMCs)
Experiment: Intracellular NO determination using DAF-FM DA
Format: cell-based
Settings: increasing ABH concentrations 1 µM-5 mM

N[C@@H](CCCCB(O)O)C(=O)O [ABH, S-2-amino-6-boronic acid]
intracellular NO and/or N2O3 (DAF-FM DA fluorescence): the amount of intracellular NO rises with increasing concentrations of ABH

From publication PMC3574223 (Bioorganic & medicinal chemistry, 2013)
